Assay results reported in article PMC8402547, “In Vitro and In Vivo Analysis of Ochratoxin A-Derived Glucuronides and Mercapturic Acids as Biomarkers of Exposure” (Toxins, 2021).

Experiments:
[1] = In vitro incubation of OTA with liver S9 in the presence of GSH or NAC; format: in vitro ADME, rat; conditions: for Time-dependent formation from OTA: rat liver S9, with NADPH regenerating system, GSH or NAC 5 mM, t = 0, 60, 120 min; for Formation from OTA in the absence of the NADPH regenerating system: rat liver S9, no NADPH regenerating system
Procedure: (§1) Liver S9 fractions from rats (Sprague-Dawley, male, 97 donors, 20 mg/mL) and humans (mixed genders, 50 donors, 20 mg/mL) were obtained from XenoTech (Kansas City, USA). S9 fractions from Goettingen® minipigs and rabbits were prepared in-house based on a modified protocol from Hubbard et al. (1985). Rabbit liver (Blue Vienna x German Giant, female) was obtained from ImmonuGlobe (Himmelstadt, Germany), whereas minipig liver (Goettingen® minipig, male, 42.4 kg bw) was obtained from the University Goettingen, Department of Animal Science.
(§2) For analysis of OTA-derived GSH and NAC conjugates, liver S9 fractions (4 mg/mL) of rats, rabbits, minipigs and humans were incubated with OTA (0.1 mM), GSH or NAC (5 mM) and an NADPH regenerating system (NADP (5 mM), glucose-6-phosphate (5 mM), glucose-6-phosphate-dehydrogenase (1.25 units/mL)) in 100 mM phosphate-buffered saline (pH 7.4) in a total volume of 300 µL at 37 °C for two hours. Control incubations were carried out a) in the absence of GSH/NAC and b) in the absence of the NADPH regenerating system. Aliquots (100 µL) were removed immediately (t = 0) as well as after 60 (t = 60) and 120 (t = 120) minutes, and the enzymatic reaction was stopped by addition of 200 µL ACN and centrifugation (20 min, 4 °C, 20,000× g). The supernatants were removed and stored at −80 °C until further analysis.
(§3) LC–MS/MS analyses were performed on an Agilent 1100 series LC coupled to an API 2000/Q-Trap mass spectrometer (Applied Biosystems/MDS Sciex, Concord, Canada). Samples were injected into the LC–MS/MS system through an Agilent 1100 series autosampler. Separations were carried out on a ReproSil-Pur C18 AQ column (2 mm × 150 mm, 5 µm; Dr. Maisch; Ammerbuch, Germany). Gradient elution of OTA-derived metabolites was carried out with water + 0.1% formic acid (solvent A) and acetonitrile (solvent B). Initially, solvent A was held isocratic for 5 min at 100%, followed by a linear gradient to 95% B in 5 min. These conditions were held for further 5 min. Within 1 min, the gradient decreased linearly to 0% B and remained at initial conditions until the end of analysis (30 min). A flow rate of 0.2 mL/min was used. For each run, 10 µL of the respective sample were injected by the autosampler.
(§4) The API 2000/Q-Trap mass spectrometer was operated with a Turbo Ion Spray source in negative ion mode with a voltage of −4000 V. Spectral data were recorded with N2 as the heater gas at 450 °C and as the collision gas (CAD = −2) in multiple reaction monitoring mode (MRM).
(§5) In addition to MRM, constant neutral loss of 129 amu in the negative ion mode based on the characteristic fragmentation pattern of mercapturic acids was used to screen for N-acetyl-cysteine conjugates of OTA. Furthermore, constant neutral loss of 176 amu in positive ion mode based on the fragmentation pattern of glucuronic acid conjugates was used to screen for OTA glucuronides.

[2] = as above; format: in vitro ADME, rabbit; conditions: for Time-dependent formation from OTA: rabbit liver S9, with NADPH regenerating system, GSH or NAC 5 mM, t = 0, 60, 120 min; for Formation from OTA in the absence of the NADPH regenerating system: rabbit liver S9, no NADPH regenerating system
Procedure: as §1, §2, §3, §4, §5

[3] = as above; format: in vitro ADME, minipig; conditions: for Time-dependent formation from OTA: minipig liver S9, with NADPH regenerating system, GSH or NAC 5 mM, t = 0, 60, 120 min; for Formation from OTA in the absence of the NADPH regenerating system: minipig liver S9, no NADPH regenerating system
Procedure: as §1, §2, §3, §4, §5

[4] = as above; format: in vitro ADME, human; conditions: for Time-dependent formation from OTA: human liver S9, with NADPH regenerating system, GSH or NAC 5 mM, t = 0, 60, 120 min
Procedure: as §1, §2, §3, §4, §5

[5] = Direct LC–MS/MS analysis of OTA metabolites in urine of OTA-treated rats; format: in vivo, male F344/N rats; conditions: OTA up to 2 mg/kg bw, negative ionization mode
Procedure: Archived urine samples from previous repeated dose oral toxicity studies on OTA in male F344/N rats were used. The studies were performed according to national animal welfare regulations after authorization by the local authorities (Regierung von Unterfranken, AZ 621-2531.01-9/98 and AZ 54-2531.01-59/05).
14-day study: Male F344 rats (170–190 g) were purchased from Charles-River Laboratories, Sulzfeld, Germany. Animals had free access to water and standard diet (Altromin) and were kept under standard conditions (12 h day/night cycle, temperature 21–23 °C, humidity 45–55%). Rats were transferred to metabolic cages (Tecniplast Metabolic Cage—Rats Over 300 g; Tecniplast, Italy) for collection of urine 3 days prior to dosing. Animals were administered OTA dissolved in corn oil by oral gavage at 0, 0.25, 0.5, 1.0 and 2.0 mg/kg bw for 2 weeks (5 days per week). Urine was collected every 12 h on day 1 of treatment and every 24 h thereafter on ice, aliquoted and stored at −20 °C until further analysis.
90-day study: Male F344/N rats (6–7 weeks old) were purchased from Harlan-Winkelmann, Borchen, Germany. Animals were housed in groups of 5 in Macrolon type-4 cages and allowed free access to pelleted standard rat maintenance diet (SSNIFF, Soest, Germany) and tap water. After a week of acclimatization, rats (n = 5/dose) were exposed to OTA dissolved in corn oil by oral gavage at doses of 0, 21, 70 or 210 µg/kg bw for 2, 4 or 13 weeks (5 days per week). For urine collection, animals were transferred into metabolic cages (Tecniplast Metabolic Cage—Rats Over 300 g; Tecniplast, Italy) 48 h prior to necropsy and fasted for 20 h but allowed free access to tap water. Urine was collected for 24 h on ice, aliquoted and stored at −20 °C until further analysis.
Urine samples were diluted with acetonitrile (2:1), vortexed and cleared via centrifugation (4 °C, 15 min., 2000× g) to precipitate proteins. Of the resulting supernatant, 10 µL were injected into the LC–MS system and analyzed using the method described below.
as §3, §4, §5

Compound | Time-dependent formation from OTA [1] | Time-dependent formation from OTA [2] | Time-dependent formation from OTA [3] | Time-dependent formation from OTA [4] | Detection in urine of OTA-treated rats by direct LC–MS/MS (MRM) [5] | Formation from OTA in the absence of the NADPH regenerating system [1] | Formation from OTA in the absence of the NADPH regenerating system [2] | Formation from OTA in the absence of the NADPH regenerating system [3] | Formation from OTA in the absence of the NADPH regenerating system ([4]; human liver S9, no NADPH regenerating system)
C[C@H]1OC(=O)c2c(ccc(C(=O)N[C@@H](Cc3ccccc3)C(=O)O)c2O)[C@H]1O [4-hydroxy-OTB] | not observed | not observed | not observed | not observed |  |  |  |  | 
C[C@@H](O)Cc1c(Cl)cc(C(=O)N[C@@H](Cc2ccccc2)C(=O)O)c(O)c1C(=O)O [OP-OTA] | observed |  | observed |  | traces | not formed | not formed | not formed | not formed
C[C@@H]1Cc2c(SC[C@H](NC(=O)CC[C@H](N)C(=O)O)C(=O)NCC(=O)O)cc(C(=O)N[C@@H](Cc3ccccc3)C(=O)O)c(O)c2C(=O)O1 [OTB-GSH] | not evident | not evident | not evident | not evident |  |  |  |  | 
CC(=O)NC(CSc1cc(C(=O)N[C@@H](Cc2ccccc2)C(=O)O)c(O)c2c1C[C@@H](C)OC2=O)C(=O)O (stereo partly drawn) [OTB-NAC] | not evident | not evident | not evident | not evident | did not confirm the presence |  |  |  | 
C[C@@H]1Cc2ccc(C(=O)N[C@@H](Cc3ccccc3)C(=O)O)c(O)c2C(=O)O1 [OTB] | no time-dependent increase | no time-dependent increase | no time-dependent increase | no time-dependent increase |  |  |  |  | 
C[C@@H]1Cc2c(O)c(SC[C@H](NC(=O)CC[C@H](N)C(=O)O)C(=O)NCC(=O)O)c(C(=O)N[C@@H](Cc3ccccc3)C(=O)O)c(O)c2C(=O)O1 [OTHQ-GSH] | not evident | not evident | not evident | not evident |  | detected | detected | detected | 
CC(=O)NC(CSc1c(O)c2c(c(O)c1C(=O)N[C@@H](Cc1ccccc1)C(=O)O)C(=O)O[C@H](C)C2)C(=O)O (stereo partly drawn) [OTHQ-NAC] | not evident | not evident | not evident | not evident | not detected |  |  |  | 
C[C@@H]1Cc2c(O)cc(C(=O)N[C@@H](Cc3ccccc3)C(=O)O)c(O)c2C(=O)O1 [OTHQ] | not observed | not observed | not observed | not observed | not detected |  |  |  | 
C[C@@H]1Cc2c(Cl)cc(C(=O)O)c(O)c2C(=O)O1 [OTalpha] |  |  |  |  | consistently found |  |  |  | 
